# What was measured:
# [1] = system: caterpillars of the army worm (Spodoptera frugiperda); experiment: Spodoptera frugiperda test; type: in vivo; settings: 100 ppm, cabbage leaves dipped
# Description: (§1) To produce a suitable preparation of active compound, 1 part by weight of active compound is mixed with the stated amounts of solvent and emulsifier, and the concentrate is diluted with emulsifier-containing water to the desired concentration.
# Cabbage leaves (Brassica oleracea) are treated by being dipped into the preparation of active compound of the desired concentration and are populated with caterpillars of the army worm (Spodoptera frugiperda) while the leaves are still moist.
# After the desired period of time, the kill in % is determined. 100% means that all caterpillars have been killed; 0% means that none of the caterpillars have been killed. The kill rates determined are calculated using the Colby formula (see page 32).
# [2] = system: larvae of the mustard beetle (Phaedon cochleariae); experiment: Phaedon larvae test; type: in vivo; settings: 100 ppm, cabbage leaves dipped
# Description: as §1
# Cabbage leaves (Brassica oleracea) are treated by being dipped into the preparation of active compound of the desired concentration and are populated with larvae of the mustard beetle (Phaedon cochleariae) while the leaves are still moist.
# After the desired period of time, the kill in % is determined. 100% means that all beetle larvae have been killed; 0% means that none of the beetle larvae have been killed. The kill rates determined are calculated using the Colby formula (see page 32).
smiles,measurement,setting,value
Cc1cc(C)c(C2=C(OC(=O)CC(C)(C)C)C3(CCCC3)OC2=O)c(C)c1 [Compound (I-b-1)],Kill rate in % after 6 d,[1],5%
same,Kill rate in % after 6 d,[2],30%

# Source: patent US7795303B2, “Active agents combination exhibiting insecticidal and acaricide properties” (Bayer CropScience AG, priority 2003, dated 2010)
